Here are results for three substances from paper PMC3319690 (Journal of Immunology (Baltimore, Md. : 1950), 2008).

In assay [1] the test system is CD8^+ T cells. The following applies: mouse, in vivo.
Assay [2] deals with naive, epitope-specific precursor CD8^+ T cells. The arrangement: species or system mouse. Particulars: for Naive epitope-specific CD8^+ T cells per mouse: spleen and lymph nodes of individual naive H-2^b mice, average, n = 15–19, tetramer-based enrichment.
The subject of assay [3] is CD8^+ T cells. The following applies: mouse, in vivo. This is another data set of the same source.
Assay [4] relates to CD8^+ T cells. The following applies: mouse, in vivo. The source holds these as a separate data set.
In assay [5] the test system is CD8^+ T cells. In kind it is in vivo, mouse.
Assay [6] deals with naive, epitope-specific precursor CD8^+ T cells. The following applies: indirect titration of TCR transgenic T cells; cited from earlier work.

Turning to “GP276–286 (SGVENPGGYCL; UniProt P09991 276-286, looked up, fragment)”, the “IFN-γ response to wild-type epitopes in GPVNPV-inoculated mice” value in the assay with CD8^+ T cells [1] is recorded as “significantly diminished amounts of IFN-γ”.

For “NP205–212 (YTVKYPNL; UniProt P09992 205-212, looked up, fragment)”, the “Naive epitope-specific CD8^+ T cells per mouse” value in assay [2] was 57 CD8^+ T cells.

GP33–41: in the assay on CD8^+ T cells [1], the “IFN-γ response to wild-type epitopes in GPVNPV-inoculated mice” value is reported as “significantly diminished amounts of IFN-γ”. In addition, the “CD8^+ T cell response in F1 hybrid mice” value in the assay with CD8^+ T cells [3] is listed as “still elicited robust T cell responses”. For the same substance, the “CD8^+ T cell response in rVACV-immunized mice” value in the assay with CD8^+ T cells [4] was “the LCMV-specific response remained focused on the major dominant epitopes”. In addition, the “Response to single peptide immunization relative to peptide pool immunization” value in the assay on CD8^+ T cells [5] (Fig. 8A vs Fig. 6, wild-type GP33–41 peptide) is roughly 2 fold. Also, the “CD8^+ T cell response after peptide pool immunization” value with CD8^+ T cells [5] (pool of 28 peptides, day 11–12, H-2^b mice) was “relatively strongly recognized”. For the same substance, the “Precursor frequency relative to NP396–404/D^b-specific precursors” value in assay [2] (naive H-2^b mice) came out at 4 fold. For the same substance, the “Naive epitope-specific CD8^+ T cells per mouse” value in assay [2] is 449 CD8^+ T cells. In addition, in assay [6], the “Previous estimate of GP33–41/D^b-specific precursors” value is 100–200 precursors.
